Reference: patent publication US8247400B2, “Cephem compounds useful for the treatment of bacterial infections” (priority 2009, dated 2012)
Values joined by “and” are separate entries in the source; they are usually repeats but may differ in a detail not shown here. Equal entries are not always repeated.

What was measured:
[1] = pH solubility profile of Compound A in USP buffers at room temperature; assay type: physicochemical; conditions: for Approximate Solubility: room temperature
Protocol: Testing was conducted using a reciprocating platform shaker (Heidolph® Promax 1020).

[2] = Solubility of Compound A in solvent mixtures; assay type: physicochemical
[3] = Room temperature stability of the 4.20 mg/ml Compound A dosage form (Table 8); assay type: physicochemical
Protocol: An example of a dosage form containing 4.20 mg/ml of Compound A that is suitable for parenteral (e.g., IM or IV) administration is provided in Table 8. The propylene glycol, PEG-300 and ethanol were added to a volumetric flask and mixed. The acetate buffer pH 5.0 (1M) was then added q.s to volume and the contents of the flask were mixed. Compound A was added to a separate clear dry volumetric flask. Approximately ⅓ of the total propylene glycol, PEG-300 and ethanol mixture was added and the resulting mixture was shaken vigorously for 2 minutes. The remainder of the mixture was then added to the flask to make up the volume. The contents were mixed by gentle shaking or by sonication until a clear solution was obtained. The solution was then filtered through a 0.22μ filter (Millex® GV) using a sterile disposable syringe or vial.

[4] = Room temperature stability of the 1.0 mg/ml parenteral dosage form with L-arginine (Table 10); assay type: physicochemical; conditions: for % Assay / pH: 1 mg/ml solution with L-arginine in normal saline (Table 10)
Protocol: An example of a dosage form containing 1.0 mg/ml of Compound A hydrochloride that is suitable for parenteral (e.g., IM or IV) administration is provided in Table 10. The L-arginine was dissolved in saline and the pH of the solution was adjusted to ˜8.0 using 0.05N HCl. Compound A was then added and the pH of the solution was adjusted to ˜7.40. The solution was then filtered through a 0.22 μm filter.

[5] = test system: rats (CD® strain); test: Four-week intravenous toxicity study in rats; assay type: in vivo; conditions: 9 mg/kg/day, over a period of 28 days
Protocol: The potential toxicity of an intravenously administered formulation of Compound A (average concentration analysis=95.6%) was studied for four weeks in rats (CD® strain). The vehicle (L-arginine dissolved in saline, 21.7 mg/ml), control (saline solution) and test solutions were administered by an intravenous infusion in the cannulated femoral vein through a dosing port. The dose was administered once per day at approximately the same time (±2 hours) each day throughout the duration of the study. The dose volume was 10 ml/kg per day. All doses were administered using a syringe infusion pump set for the appropriate infusion rate to deliver the proper dose volume over the required infusion duration of 15 minutes. All animals across all groups were examined prior to exposure and all the main study survivors were examined again at the end of study. […] Detailed clinical examinations were made for each animal daily during treatment (approx 30 to 60 minutes post-dosing).

[6] = test system: human peripheral blood lymphocytes (HPBL); test: In vitro mammalian chromosome aberration test; assay type: cell-based; conditions: vehicle DMSO, maximum concentration 5000 μg/ml
Description: [B] In Vitro Mammalian Chromosome Aberration Test
The purpose of this study was to evaluate the clastogenic potential of a test article based upon its ability to induce chromosome aberrations in human peripheral blood lymphocytes (HPBL).
Negative: Test Article Solvent (or Vehicle)
Positive: Mitomycin C (MMC, CAS number 50-07-7)
Cyclophosphamide (CP, CAS number 6055-19-2)

[7] = test system: thymidine kinase locus of L5178Y mouse lymphoma cells; conditions: vehicle DMSO, maximum concentration 5000 μg/ml
Protocol: In vitro genotoxicity studies were conducted as a mouse lymphoma study and a chromosomal aberration test. The vehicle was DMSO and the maximum concentration to be tested was 5000 μg/ml for both studies.
In Vitro Mammalian Cell Gene Mutation Test
(L5178Y/TK^+/− Mouse Lymphoma Assay)
The purpose of this study was to evaluate the genotoxic potential of the test article based on quantitation of forward mutations at the thymidine kinase locus of L5178Y mouse lymphoma cells and the sizing of the resulting colonies.
Negative: Test article solvent (or vehicle)
Positive: Methyl methanesulfonate (MMS)
7,12-dimethylbenz(a)anthracene (DMBA)

[8] = Agar diffusion antibacterial activity; assay type: cell-based; conditions: Pseudomonas aureus; for Zone of Inhibition (mm) (average of 3 plates): Compound A approx. 22 μg/disk, Gentamicin 10 mcg per disk, 30-35° C., 2 days
Protocol: (§1) The antibiotic activity of Compound A (as the hydrochloride salt) was tested by Agar Diffusion against the following bacterial strains: Staphylococcus aureus, Salmonella typhimurium, Escherichia coli and Pseudomonas aureus. The antibiotic activity of Compound A was compared to that observed for the antibiotic gentamicin (positive control antibiotic). 0.85% saline solution was used as a negative control. The protocol is provided below. A solution containing Compound A hydrochloride, 20 ug per disk, was added to BBL™ Sensi-Disc™. Fifteen Petri dish filled with an agar medium were prepared a day before their use. These were utilized for testing of 5 microorganisms (4 bacterial species including Staphylococcus aureus, Salmonella typhimurium, Pseudomonas aeruginosa, and Escherichia coli, and one fungus (Candida albicans). Triplicate plates were then streaked with each specific microorganism. Twelve plates to be utilized for antibacterial testing were applied with positive control and negative control discs. Positive control discs are impregnated with gentamycin and are available from Becton, Dickinson and Co (ready to be used cartridges, “BBL™ Sensi-Disc™ Antimicrobial Susceptibility Test Discs”). Negative control discs were prepared by soaking dry disks with normal saline solution. These discs were applied by means of a BBL™ dispenser, using aseptic precautions. The remaining (three) plates to be utilized for antifungal properties were also applied with positive and negative controls; however, in this case positive control discs were impregnated with nystatin (available as BBL™ Taxo™ Nystatin Discs Cartridge from BD & Co). Fifteen dry discs (identical to those of positive and negative control discs but with unique identification print on one side, “NY”) were soaked with a solution of Compound A hydrochloride for about 5 minutes. The discs were then carefully transferred (using a sterile forceps) to a sterile empty Petri dish to decant off any excess test solution. Then one disc was applied to each of fifteen plates that were previously applied with positive and negative controls. The approximate loading of compound A was 22 μg/disk. Triplicate plates for each microorganism were assembled together and properly labeled prior to incubation. Plates for antibacterial testing were incubated at 30-35° C. (for 2 days) while for antifungal testing plates were incubated at 24° C. Plates were read for zones of inhibition using Vernier calipers.

[9] = test system: Escherichia coli; test: Agar diffusion antibacterial activity; assay type: cell-based; conditions: for Zone of Inhibition (mm) (average of 3 plates): Compound A approx. 22 μg/disk, Gentamicin 10 mcg per disk, 30-35° C., 2 days
Protocol: as §1

[10] = test system: Salmonella typhimurium; test: Agar diffusion antibacterial activity; assay type: cell-based; conditions: for Zone of Inhibition (mm) (average of 3 plates): Compound A approx. 22 μg/disk, Gentamicin 10 mcg per disk, 30-35° C., 2 days
Protocol: as §1

[11] = test system: Staphylococcus aureus; test: Agar diffusion antibacterial activity; assay type: cell-based; conditions: for Zone of Inhibition (mm) (average of 3 plates): Compound A approx. 22 μg/disk, Gentamicin 10 mcg per disk, 30-35° C., 2 days
Protocol: as §1

[12] = pH 7.0 (0.1 M Potassium Phosphate)
[13] = pH 9.0 (0.1 M Potassium phosphate)
[14] = 4.20 mg/ml Compound A in propylene glycol/ethanol/PEG-300/acetate buffer pH 5.0 (Table 8), batches 1-4
[15] = versus Gentamicin (10 mcg per disk)

## CCO/N=C(\C(=O)N[C@@H]1C(=O)N2C(C(=O)[O-])=C(Sc3nc(-c4cc[n+](C)cc4)cs3)CS[C@H]12)c1nsc(NC(C)=O)n1 [Compound A, (6R,7R)-7-[[(2Z)-2-(ethoxyimino)-2-[5-(acetamido)-1,2,4-thiadiazol-3-yl]acetyl]amino]-3-[[4-(1-methylpyridinium-4-yl)-1,3-thiazol-2-yl]sulfanyl]-8-oxo-5-thia-1-azabicylo[4.2.0]oct-2ene-2-carboxylate]
[1]; pH 1.0 (0.2 M KCl—HCl)
  Description: Solution
  Approximate Solubility: 500 µg/mL
[1]; pH 3.0 (0.1 M Sodium acetate)
  Description: Solution
  Approximate Solubility: 4700 µg/mL
[1]; pH 5.0 (0.05 M Sodium acetate)
  Description: Gel
  Approximate Solubility: 800 µg/mL
[1]; pH 5.0 (0.1 M Sodium acetate)
  Description: Gel
  Approximate Solubility: 400 µg/mL
[1]; pH 5.0 (0.5 M Sodium acetate)
  Description: Gel
  Approximate Solubility: 500 µg/mL
[1]; [12]
  Description: Gel
  Approximate Solubility: 400 µg/mL
[1]; [13]
  Description: Solution
  Approximate Solubility: 13300 µg/mL
[2]; 8% Propylene Glycol, 2% Ethanol, 2% PEG-300, 5% 1-Methyl-2-pyrrolidinone, 83% Acetate buffer pH 5 (1M)
  Approximate Solubility: 2000 µg/mL
[2]; 8% Propylene Glycol, 2% Ethanol, 2% PEG-300, 88% Acetate buffer pH 5 (1M)
  Approximate Solubility: 1800 µg/mL
[2]; 8% Propylene Glycol, 2% Ethanol, 5% Benzyl alcohol, 85% Acetate buffer pH 5 (1M) (first entry, r11)
  Approximate Solubility: 1500 µg/mL
[2]; 8% Propylene Glycol, 2% Ethanol, 5% Benzyl alcohol, 85% Acetate buffer pH 5 (1M) (second entry, r17)
  Approximate Solubility: 3500 µg/mL
[2]; 8% Propylene Glycol, 2% Ethanol, 90% Acetate buffer pH 5 (1M)
  Approximate Solubility: 1500 µg/mL
[2]; 8% Propylene Glycol, 2% PEG-300, 5% Benzyl alcohol, 85% Acetate buffer pH 5 (1M)
  Approximate Solubility: 4000 µg/mL
[2]; 8% Propylene Glycol, 9% PEG-300, 83% Acetate buffer pH 5 (1M)
  Approximate Solubility: 1100 µg/mL
[2]; 10% Sodium benzoate in Normal Saline, pH 6.5
  Approximate Solubility: 4200 µg/mL
[2]; 10% Sodium benzoate in water, pH 6.3
  Approximate Solubility: 4200 µg/mL
[2]; 40% Propylene Glycol, 2.5% Ethanol, 57.5% Acetate buffer pH 5
  Approximate Solubility: 4200 µg/mL
[2]; 60% Propylene Glycol, 2.5% Ethanol, 37.5% Acetate buffer pH 5
  Approximate Solubility: >25000 µg/mL
[2]; Dimethyl sulfoxide (DMSO)
  Approximate Solubility: 212000 µg/mL
[2]; Ethanol
  Approximate Solubility: 1500 µg/mL
[2]; Methanol
  Approximate Solubility: 400000 µg/mL
[2]; Sterile water for injection USP
  Approximate Solubility: 800 µg/mL
[3]; [14]
  Initial Assay (%): 99.2% and 101.3% and 100.5% and 98.5%
  Initial pH: 6.06 and 6.08 and 6.13
[3]; 4.20 mg/ml Compound A solution (Table 8), 3 hrs at RT, batch 4
  Final Assay (%): 96.9 (3 hrs at RT) %
[3]; 4.20 mg/ml Compound A solution (Table 8), 5 hrs at RT, batches 2 and 3
  Final Assay (%): 97.9 (5 hrs at RT) % and 95.6 (5 hrs at RT) %
[3]; 4.20 mg/ml Compound A solution (Table 8), batch 4, 3 hrs at RT
  Final pH: 5.99
[4]; 2 hours
  % Assay: 95.3%
  pH: 7.34
[4]; 4 hours
  % Assay: 95.1%
  pH: 7.41
[4]; Initial
  % Assay: 95.7%
  pH: 7.35
[4]; solution containing 1 mg/ml of Compound A
  stability of the solution (in words): stable
[5]
  adverse clinical events: did not show any adverse clinical events
[6]
  genotoxicity result, chromosomal aberration study using human lymphocytes: negative
[7]
  genotoxicity result, mouse lymphoma study: negative

## Gentamicin [reference compound]
[8]
  Zone of Inhibition (mm) (average of 3 plates): 20.17 mm
[9]
  Zone of Inhibition (mm) (average of 3 plates): 20.27 mm
[10]
  Zone of Inhibition (mm) (average of 3 plates): 18.03 mm
[11]
  Zone of Inhibition (mm) (average of 3 plates): 21.27 mm

## CCO/N=C(\C(=O)N[C@@H]1C(=O)N2C(C(=O)[O-])=C(Sc3nc(-c4cc[n+](C)cc4)cs3)CS[C@H]12)c1nsc(NC(C)=O)n1.Cl [Compound A hydrochloride, (6R,7R)-7-[[(2Z)-2-(ethoxyimino)-2-[5-(acetamido)-1,2,4-thiadiazol-3-yl]acetyl]amino]-3-[[4-(1-methylpyridini-1-ium-4-yl)-1,3-thiazol-2-yl]sulfanyl]-8-oxo-5-thia-1-azabicylo[4.2.0]oct-2-ene-2-carboxylate hydrochloride]
[8]
  antibacterial activity (in words): moderate activity
  Zone of Inhibition (mm) (average of 3 plates): 9.68 mm
[9]
  Zone of Inhibition (mm) (average of 3 plates): 23.82 mm
[9]; [15]
  antibacterial activity relative to Gentamicin: 118%
[10]
  Zone of Inhibition (mm) (average of 3 plates): 21.12 mm
[10]; [15]
  antibacterial activity relative to Gentamicin: 117%
[11]
  Zone of Inhibition (mm) (average of 3 plates): 36.71 mm
[11]; [15]
  antibacterial activity relative to Gentamicin: 173%
